Measured values reported in patent publication US12723236B2, “Method for producing cell aggregate” (TOPPAN Holdings Inc., priority 2021, dated 2026).
Entries after “also recorded” stand apart in the source; their conditions may differ.

Experiments:
bile canaliculi = assay: Bile acid assay (CLF) confirming formation of bile canaliculi in hepatotoxicity model; format: cell-based, Human; conditions: collagen 0.3 mg/mL, 6 days of culture
Procedure: A hepatotoxicity model was produced according to the same method as in the method described in Test Examples 1 and 2. However, the collagen concentration was 0.3 mg/mL, and the heparin concentration was 0.05 mg/mL, 0.15 mg/mL, 0.5 mg/mL, or 5.0 mg/mL (all final concentrations).
After 6 days of culture, the medium was replaced with 300 μL of a medium containing 5 μM CLF (FITC-labeled bile acid CORNING #451041) on which the following operation was performed (this assay was performed while cells were alive). After being left in the incubator for 20 min, the tissue was washed with PBS 5 times. The medium was replaced, and observation was performed under a fluorescence microscope.
FIG. 6, FIG. 7, FIG. 8, and FIG. 9 show the results of fluorescence observation after a medium containing CLF was incubated for the hepatotoxicity models produced with different heparin concentrations. […] In each drawing, the scale bar indicates 500 μm. In normal live tissue in which bile canaliculi were favorably formed, it was thought that, since hepatocytes excreted bile acids taken up from the outside of the live tissue into the bile canaliculi, the intensity of fluorescence derived from FITC retained in the cells was low after the CLF treatment.

MRP2 = MRP2 immunostaining and image analysis of hepatotoxicity model formed in fibrin gel; format: cell-based, Human; conditions: 3 days of culture; for expression of MRP2 (fluorescence): 0.2 mg/mL collagen and/or 0.5 mg/mL heparin
Procedure: Regarding hepatotoxicity models treated with each solution, it was evaluated whether there was a difference in the state of adhesion between hepatocytes.
A cell mixture with the following proportions and cell amounts was obtained in the same procedures as Steps 1-1 to 1-3 in Test Example 1. • total amount of cells: 300,000 cells • cell proportions in tissue: • PXB cell: 65%·SEC: 25%·LX2: 10% Step 2-2
After the supernatant was removed from the solution containing the viscous component obtained in Step 2-2, a 20 U/mL thrombin solution (solvent: HCM) was added so that the final volume of the solution was a solution amount of “the number of wells to be seeded”×2 μL to obtain a cell suspension.
2 μL of a 10 mg/mL fibrinogen solution was seeded on a 48-well microplate to form droplets and each cell suspension obtained in Step 2-3 was then added into the droplets, and then left in an incubator for 1 hour to form a fibrin gel.
0.5 mL of HCM (containing Endothelial Cell Growth Supplement) was added to each well in which the fibrin gel was formed.
After HCM was added, culture was continued for 3 days in each well in which the fibrin gel was formed.
After 3 days of culture, the 48-well microplate was removed from the incubator, the medium was removed, washing with PBS was performed, and 300 μL of a 4% paraformaldehyde·phosphate buffer solution (hereinafter referred to as PFA) was then added to each well to fix a hepatotoxicity model (3D model). Then, the PFA was washed thoroughly and removed.
100 μL of a 0.2 (v/v) % TRITON/1 (w/v) % BSA PBS solution (hereinafter referred to as a BSA solution) was added to each well, and left at room temperature for 2 hours.
Anti-MRP2 antibodies were diluted 100-fold with a BSA solution to obtain a primary antibody solution. 100 μL of the primary antibody solution was added to each well and left at 4° C. for 24 hours. Then, the primary antibody solution was washed thoroughly and removed.
Secondary antibodies were diluted 200-fold with a BSA solution to obtain a secondary antibody solution. 100 μL of the secondary antibody solution was added to each well, shielded from light and left at room temperature for 1 hour. Then, the secondary antibody solution was washed thoroughly and removed, and 100 μL of PBS was added to each well.
Images were captured under a confocal microscope. […]
The intensities of the captured images were summed to obtain a fluorescence observation image of each hepatotoxicity model (3D model). […]

[1] = Gelation of neutral collagen solution at room temperature; format: physicochemical; conditions: pH 7.4, room temperature
Procedure: (§1) 100 μL of each of the following solutions was added to the cell mixture at room temperature, suspended until the cells were no longer visible, and then centrifuged (400 g×2 min) to obtain a viscous component. Here, regardless of the presence of heparin and collagen, it was confirmed in advance that the pH of each solution was approximately around 7.4. • (1) 100 mM Tris-HCl buffer solution • (2) collagen-containing solution (0.2 mg/mL collagen in 100 mM Tris-HCl buffer solution*) • (3) collagen and heparin-containing solution (0.2 mg/mL collagen and 0.5 mg/mL heparin in 100 mM Tris-HCl buffer solution) • *Since collagen quickly gelled in a neutral solution at room temperature, equal amounts of a 0.4 mg/mL collagen in 5 mM acetate buffer solution and a 200 mM Tris-HCl buffer solution prepared in advance were mixed in each of the above solutions and used. Step 1-5
Since collagen quickly gelled in a neutral solution at room temperature, equal amounts of a 0.4 mg/mL collagen in 5 mM acetate buffer solution and a 200 mM Tris-HCl buffer solution prepared in advance were mixed in each of the above solutions and used. […]

PXB cells, SEC and LX2 = assay: Aggregation behavior of cells treated with heparin/collagen (live-cell confocal observation); format: cell-based, Human; conditions: 0.2 mg/mL collagen, 0.5 mg/mL heparin in 100 mM Tris-HCl; 96-well microplate; 2 hours after seeding; FIG. 2
Procedure: PXB cells, SEC and LX2 were used as cells.
The collected cells were mixed at the following ratios and cell amounts to obtain a cell mixture. • total amount of cells: 300,000 cells • cell proportions in tissue: • PXB cells: 65%·SEC: 25%·LX2: 10% Step 1-4
as §1
After the supernatant was removed from the solution containing the viscous component, HCM was added so that the final volume of the solution was a solution amount of 100 μL to obtain a cell suspension. […]

| Substance | excretion of CLF taken into hepatocytes into the bile canaliculi (bile canaliculi; heparin 0.15, 0.5 or 5.0 mg/mL, 5 μM CLF 20 min, FIG. 7-9, (hydrochloride)) | intensity of fluorescence derived from FITC retained in the cells with increasing heparin concentration (bile canaliculi; heparin concentration increased, 5 μM CLF) | expression of MRP2 (fluorescence) (MRP2; versus control, FIG. 3) | expression intensity percentage of MRP2 (expression area percentage per area, image analysis) (MRP2; versus control, FIG. 5) | gelation of solution at room temperature [1] | aggregation of cells (PXB cells, SEC and LX2) | aggregation of cells in hepatotoxicity model (MRP2; 0.2 mg/mL collagen, FIG. 3) |
| --- | --- | --- | --- | --- | --- | --- | --- |
| heparin (hydrochloride) | CLF taken into hepatocytes was more efficiently excreted into the bile canaliculi; also recorded: CLF taken into hepatocytes was easily excreted into the bile canaliculi | the intensity of fluorescence derived from FITC retained in the cells decreased | fluorescence was enhanced as a whole compared to control conditions | higher expression intensity percentage of MRP2 than the control | did not gel at room temperature for a long time |  |  |
| collagen |  |  | expression of MRP2 tended to decrease significantly |  | quickly gelled at room temperature | aggregation of cells was significantly promoted | cells tended to aggregate excessively |
